The source of these data is publication PMC5218480 (PLoS ONE, 2017).

For the test, the system named is MV-4-11 cells. Nature of the test: Gene expression microarray analysis (Affymetrix PrimeView) and GSEA. Conditions: MV-4-11 cells, 48 hours. Type of test: cell-based, human. Set-up: RFU PODN (11730768_x_at) / Fold change /veh PODN (11730768_x_at) / RFU LINC00158 (11744669_a_at) / Fold change /veh LINC00158 (11744669_a_at) / RFU DUSP10 (11751237_a_at) / Fold change /veh DUSP10 (11751237_a_at) / RFU ID3 (11757404_x_at) / Fold change /veh ID3 (11757404_x_at) / RFU PLEKHG5 (11737974_s_at) / Fold change /veh PLEKHG5 (11737974_s_at) / RFU LRRC4B (11730491_at) / Fold change /veh LRRC4B (11730491_at) / RFU GIMAP4 (11747438_a_at) / Fold change /veh GIMAP4 (11747438_a_at) / RFU KRT8 (11758183_x_at) / Fold change /veh KRT8 (11758183_x_at) / RFU CNN1 (11734310_a_at) / Fold change /veh CNN1 (11734310_a_at) / RFU VPS37D (11726825_at) / Fold change /veh VPS37D (11726825_at) / RFU C10orf10 (11716522_x_at) / Fold change /veh C10orf10 (11716522_x_at) / RFU KIR2DL2 /// KIR2DL4 /// KIR2DL5A /// KIR2DL5B /// KIR2DS1 /// KIR2DS2 /// KIR2DS3 /// KIR2DS4 /// KIR3DL3 /// KIR3DL3 /// KIR3DS1 (11738374_at) / Fold change /veh KIR2DL2 /// KIR2DL4 /// KIR2DL5A /// KIR2DL5B /// KIR2DS1 /// KIR2DS2 /// KIR2DS3 /// KIR2DS4 /// KIR3DL3 /// KIR3DL3 /// KIR3DS1 (11738374_at) / RFU C1QL1 (11718748_at) / Fold change /veh C1QL1 (11718748_at) / RFU TMPRSS4 (11747572_a_at) / Fold change /veh TMPRSS4 (11747572_a_at) / RFU HAMP (11756126_x_at) / Fold change /veh HAMP (11756126_x_at) / RFU RNFT2 (11725882_a_at) / Fold change /veh RNFT2 (11725882_a_at) / RFU NR4A2 (11747474_a_at) / Fold change /veh NR4A2 (11747474_a_at) / RFU ABCC12 (11746883_a_at) / Fold change /veh ABCC12 (11746883_a_at) / RFU TMEM136 (11760407_x_at) / Fold change /veh TMEM136 (11760407_x_at) / RFU CLDN22 /// WWC2 (11732394_at) / Fold change /veh CLDN22 /// WWC2 (11732394_at) / RFU HLA-DPB1 (11760878_x_at) / Fold change /veh HLA-DPB1 (11760878_x_at) / RFU SPINT1 (11716480_a_at) / Fold change /veh SPINT1 (11716480_a_at) / RFU GAP43 (11754022_s_at) / Fold change /veh GAP43 (11754022_s_at) / RFU A4GNT (11735810_at) / Fold change /veh A4GNT (11735810_at) / RFU PRB3 (11715151_x_at) / Fold change /veh PRB3 (11715151_x_at) / RFU TUBB4B (11761932_at) / Fold change /veh TUBB4B (11761932_at) / RFU CAPN14 (11732068_a_at) / Fold change /veh CAPN14 (11732068_a_at) / RFU TMCC2 (11721928_a_at) / Fold change /veh TMCC2 (11721928_a_at) / RFU IRGQ (11745062_a_at) / Fold change /veh IRGQ (11745062_a_at) / RFU FAM174B (11720279_a_at) / Fold change /veh FAM174B (11720279_a_at) / RFU TMPRSS4 (11748680_a_at) / Fold change /veh TMPRSS4 (11748680_a_at) / RFU FAM212B (11763350_a_at) / Fold change /veh FAM212B (11763350_a_at) / RFU PLEKHG5 (11743358_a_at) / Fold change /veh PLEKHG5 (11743358_a_at) / RFU ZSCAN30 (11745921_a_at) / Fold change /veh ZSCAN30 (11745921_a_at) / RFU CMKLR1 (11741424_a_at) / Fold change /veh CMKLR1 (11741424_a_at) / RFU LOC101060620 /// MAPK8IP1 (11723275_at) / Fold change /veh LOC101060620 /// MAPK8IP1 (11723275_at) / RFU SPTSSB (11747773_x_at) / Fold change /veh SPTSSB (11747773_x_at) / RFU PRSS12 (11739890_at) / Fold change /veh PRSS12 (11739890_at) / RFU BIN1 (11741810_x_at) / Fold change /veh BIN1 (11741810_x_at) / RFU WNT11 (11732464_a_at) / Fold change /veh WNT11 (11732464_a_at) / RFU C10orf10 (11716521_a_at) / Fold change /veh C10orf10 (11716521_a_at) / RFU C5orf56 (11738089_at) / Fold change /veh C5orf56 (11738089_at) / RFU CYB561 (11721691_x_at) / Fold change /veh CYB561 (11721691_x_at) / RFU ANKRD19P (11752326_a_at) / Fold change /veh ANKRD19P (11752326_a_at) / RFU OR2T12 /// OR2T33 /// OR2T8 (11738714_s_at) / Fold change /veh OR2T12 /// OR2T33 /// OR2T8 (11738714_s_at) / RFU VCAN (11748164_a_at) / Fold change /veh VCAN (11748164_a_at) / RFU JSRP1 (11732532_at) / Fold change /veh JSRP1 (11732532_at) / RFU KRTAP10-11 (11738290_x_at) / Fold change /veh KRTAP10-11 (11738290_x_at) / RFU MYO3A (11730013_a_at) / Fold change /veh MYO3A (11730013_a_at) / RFU EBF3 (11725865_a_at) / Fold change /veh EBF3 (11725865_a_at) / RFU CAMK2N1 (11719241_x_at) / Fold change /veh CAMK2N1 (11719241_x_at) / RFU C5orf56 (11738088_a_at) / Fold change /veh C5orf56 (11738088_a_at) / RFU OLFML3 (11715873_a_at) / Fold change /veh OLFML3 (11715873_a_at) / RFU LOC100653217 /// NTM (11731650_a_at) / Fold change /veh LOC100653217 /// NTM (11731650_a_at) / RFU MAPK11 (11762145_a_at) / Fold change /veh MAPK11 (11762145_a_at) / RFU FIZ1 (11724087_x_at) / Fold change /veh FIZ1 (11724087_x_at) / RFU OASL (11726364_x_at) / Fold change /veh OASL (11726364_x_at) / RFU SOX15 (11748057_x_at) / Fold change /veh SOX15 (11748057_x_at) / RFU CD79A (11719716_a_at) / Fold change /veh CD79A (11719716_a_at) / RFU HIST1H1D (11736915_at) / Fold change /veh HIST1H1D (11736915_at) / RFU CASKIN2 (11723855_a_at) / Fold change /veh CASKIN2 (11723855_a_at) / RFU LOC730098 (11760151_x_at) / Fold change /veh LOC730098 (11760151_x_at) / RFU OR4N2 (11742367_at) / Fold change /veh OR4N2 (11742367_at) / RFU PRRT2 (11749266_a_at) / Fold change /veh PRRT2 (11749266_a_at) / RFU SNX32 (11753110_a_at) / Fold change /veh SNX32 (11753110_a_at) / RFU CDHR5 (11726645_a_at) / Fold change /veh CDHR5 (11726645_a_at) / RFU RCAN1 (11760418_a_at) / Fold change /veh RCAN1 (11760418_a_at) / RFU FAM167A (11723789_a_at) / Fold change /veh FAM167A (11723789_a_at) / RFU FAM26E (11764081_at) / Fold change /veh FAM26E (11764081_at) / RFU ISYNA1 (11749810_s_at) / Fold change /veh ISYNA1 (11749810_s_at) / RFU ACY1 (11761880_at) / Fold change /veh ACY1 (11761880_at) / RFU 11764098_at / Fold change /veh 11764098_at / RFU SAMD14 (11745864_x_at) / Fold change /veh SAMD14 (11745864_x_at) / RFU NPB (11741838_a_at) / Fold change /veh NPB (11741838_a_at) / RFU TMPRSS6 (11731388_a_at) / Fold change /veh TMPRSS6 (11731388_a_at) / RFU KRTAP10-2 (11738614_at) / Fold change /veh KRTAP10-2 (11738614_at) / RFU ARHGAP8 /// PRR5-ARHGAP8 (11727945_x_at) / Fold change /veh ARHGAP8 /// PRR5-ARHGAP8 (11727945_x_at) / RFU KRTAP5-7 /// NADSYN1 (11734609_at) / Fold change /veh KRTAP5-7 /// NADSYN1 (11734609_at) / RFU RASL12 (11751679_a_at) / Fold change /veh RASL12 (11751679_a_at) / RFU CDKN2B (11736163_a_at) / Fold change /veh CDKN2B (11736163_a_at) / RFU PRF1 (11729649_at) / Fold change /veh PRF1 (11729649_at) / RFU, ZNF638 /// ZNF638-IT1 / Fold change vs veh, ZNF638 /// ZNF638-IT1 / RFU, PANK3 / Fold change vs veh, PANK3 / RFU, SH3YL1 / Fold change vs veh, SH3YL1 / RFU, ZEB2 / Fold change vs veh, ZEB2 / RFU, NRIP1 / Fold change vs veh, NRIP1 / RFU, PTTG1IP / Fold change vs veh, PTTG1IP / RFU, CAPN2 / Fold change vs veh, CAPN2 / RFU, MED14 / Fold change vs veh, MED14 / RFU, SNORA58 / Fold change vs veh, SNORA58 / RFU, C1orf63 / Fold change vs veh, C1orf63 / RFU, LRRFIP1 / Fold change vs veh, LRRFIP1 / RFU, NDUFAF7 / Fold change vs veh, NDUFAF7 / RFU, SLC12A2 / Fold change vs veh, SLC12A2 / RFU, IBTK / Fold change vs veh, IBTK / RFU, ESF1 / Fold change vs veh, ESF1 / Fold change vs veh, TMEM50B / RFU, TAOK1 / Fold change vs veh, TAOK1 / RFU, ACBD3 / Fold change vs veh, ACBD3 / RFU, TMA16 / Fold change vs veh, TMA16 / RFU, RWDD3 / Fold change vs veh, RWDD3 / RFU, BCAT1 / Fold change vs veh, BCAT1 / RFU, EDEM3 / Fold change vs veh, EDEM3 / RFU, TMEM33 / Fold change vs veh, TMEM33 / RFU, WDR75 / Fold change vs veh, WDR75 / RFU, AHCTF1 / Fold change vs veh, AHCTF1 / RFU, TFRC / Fold change vs veh, TFRC / RFU, ZDHHC17 / Fold change vs veh, ZDHHC17 / RFU, NOM1 / Fold change vs veh, NOM1 / RFU, ARL8B / Fold change vs veh, ARL8B / RFU, ZBTB11 / Fold change vs veh, ZBTB11 / RFU, TAMM41 / Fold change vs veh, TAMM41 / RFU, KIAA1704 /// LOC100996395 / Fold change vs veh, KIAA1704 /// LOC100996395 / RFU, ING1 / Fold change vs veh, ING1 / RFU, TRMT61B / Fold change vs veh, TRMT61B / RFU, FUBP3 / Fold change vs veh, FUBP3 / RFU, TP53 / Fold change vs veh, TP53 / RFU, TNKS2 / Fold change vs veh, TNKS2 / RFU, ZFP14 / Fold change vs veh, ZFP14 / RFU, ACTR2 / Fold change vs veh, ACTR2 / RFU, PPP3R1 / Fold change vs veh, PPP3R1 / RFU, PIK3R1 / Fold change vs veh, PIK3R1 / RFU, HNRNPA1 / Fold change vs veh, HNRNPA1 / RFU, RNF170 / Fold change vs veh, RNF170 / RFU, ZNF28 / Fold change vs veh, ZNF28 / RFU, RNGTT / Fold change vs veh, RNGTT / RFU, OGT / Fold change vs veh, OGT / RFU, BRD1 / Fold change vs veh, BRD1 / RFU, MARS / Fold change vs veh, MARS / RFU, ZNF655 / Fold change vs veh, ZNF655 / RFU, FAHD1 / Fold change vs veh, FAHD1 / RFU, BDP1 / Fold change vs veh, BDP1 / RFU, LRRCC1 / Fold change vs veh, LRRCC1 / RFU, ARID1A / Fold change vs veh, ARID1A / RFU, ZNF146 / Fold change vs veh, ZNF146 / RFU, ZNF330 / Fold change vs veh, ZNF330 / RFU, GPN3 / Fold change vs veh, GPN3 / RFU, C9orf123 / Fold change vs veh, C9orf123 / RFU, N4BP2L2 / Fold change vs veh, N4BP2L2 / RFU, ARFIP1 / Fold change vs veh, ARFIP1 / RFU, FAM179B / Fold change vs veh, FAM179B / RFU, BCL10 / Fold change vs veh, BCL10 / RFU, UHRF1BP1L / Fold change vs veh, UHRF1BP1L / RFU, BET1 / Fold change vs veh, BET1 / RFU, CNOT2 / Fold change vs veh, CNOT2 / RFU, ZNF268 / Fold change vs veh, ZNF268 / Fold change vs veh, ZNF507 / RFU, DGCR2 / Fold change vs veh, DGCR2 / RFU, WDSUB1 / Fold change vs veh, WDSUB1 / Fold change vs veh, HSP90B1 /// MIR3652 / RFU, ADSS / Fold change vs veh, ADSS / RFU, GK / Fold change vs veh, GK / RFU, ZNF148 / Fold change vs veh, ZNF148 / RFU, TAF9 / Fold change vs veh, TAF9 / RFU, SLC1A5 / Fold change vs veh, SLC1A5 / RFU, SLMO2 / Fold change vs veh, SLMO2 / RFU, ABCC4 / Fold change vs veh, ABCC4 / RFU, LOC101060439 /// RAP1B / Fold change vs veh, LOC101060439 /// RAP1B / RFU, RFX7 / Fold change vs veh, RFX7 / RFU, GTPBP10 / Fold change vs veh, GTPBP10 / RFU, CNEP1R1 / Fold change vs veh, CNEP1R1 / RFU, BIVM-ERCC5 /// ERCC5 / Fold change vs veh, BIVM-ERCC5 /// ERCC5 / RFU, ILF3 / Fold change vs veh, ILF3 / RFU 11762660_at / Fold change /veh 11762660_at / RFU VCAN (11757783_s_at) / Fold change /veh VCAN (11757783_s_at) / RFU DDX43 (11728927_at) / Fold change /veh DDX43 (11728927_at) / RFU KRT8 (11758188_x_at) / Fold change /veh KRT8 (11758188_x_at) / RFU NKD1 (11759106_at) / Fold change /veh NKD1 (11759106_at) / RFU SRD5A1 (11742802_a_at) / Fold change /veh SRD5A1 (11742802_a_at) / RFU TPSAB1 /// TPSB2 (11721975_s_at) / Fold change /veh TPSAB1 /// TPSB2 (11721975_s_at) / RFU GSTM3 (11746129_a_at) / Fold change /veh GSTM3 (11746129_a_at) / RFU IL23R (11737362_x_at) / Fold change /veh IL23R (11737362_x_at) / RFU TMEM51 (11727254_a_at) / Fold change /veh TMEM51 (11727254_a_at) / RFU PIWIL2 (11732686_x_at) / Fold change /veh PIWIL2 (11732686_x_at) / RFU ORM1 (11744905_x_at) / Fold change /veh ORM1 (11744905_x_at) / RFU CCDC152 (11743942_at) / Fold change /veh CCDC152 (11743942_at) / RFU ECM1 (11717891_a_at) / Fold change /veh ECM1 (11717891_a_at) / RFU IL23R (11748794_a_at) / Fold change /veh IL23R (11748794_a_at) / RFU TNFAIP8L3 (11732012_x_at) / Fold change /veh TNFAIP8L3 (11732012_x_at) / RFU MBOAT4 (11741988_at) / Fold change /veh MBOAT4 (11741988_at) / RFU 11764193_at / Fold change /veh 11764193_at / RFU TMEM53 (11763286_at) / Fold change /veh TMEM53 (11763286_at) / RFU MAGEB2 (11727129_at) / Fold change /veh MAGEB2 (11727129_at) / RFU TMEM200A (11744735_a_at) / Fold change /veh TMEM200A (11744735_a_at) / RFU CCDC152 (11751479_a_at) / Fold change /veh CCDC152 (11751479_a_at) / RFU FAM211A (11726209_a_at) / Fold change /veh FAM211A (11726209_a_at) / RFU RGS16 (11746705_a_at) / Fold change /veh RGS16 (11746705_a_at) / RFU VCAN (11755009_s_at) / Fold change /veh VCAN (11755009_s_at) / RFU RHOB (11743442_s_at) / Fold change /veh RHOB (11743442_s_at) / RFU RGS16 (11720943_a_at) / Fold change /veh RGS16 (11720943_a_at) / RFU RGS16 (11720944_at) / Fold change /veh RGS16 (11720944_at) / RFU, VPS4B / Fold change vs veh, VPS4B / RFU, CREB1 / Fold change vs veh, CREB1 / RFU, DNAJC13 / Fold change vs veh, DNAJC13 / RFU, GNAQ / Fold change vs veh, GNAQ / RFU, CDK5R1 / Fold change vs veh, CDK5R1 / RFU, ZRANB3 / Fold change vs veh, ZRANB3 / RFU, CUL4A / Fold change vs veh, CUL4A / RFU, CCNY / Fold change vs veh, CCNY / RFU, UFL1 / Fold change vs veh, UFL1 / RFU, COG3 / Fold change vs veh, COG3 / RFU, DIAPH2 / Fold change vs veh, DIAPH2 / RFU, SKA2 / Fold change vs veh, SKA2 / RFU, AFF3 / Fold change vs veh, AFF3 / RFU, LMF1 / Fold change vs veh, LMF1 / RFU, IPO11 / Fold change vs veh, IPO11 / RFU, DFFB / Fold change vs veh, DFFB / RFU, FOXP1 / Fold change vs veh, FOXP1 / RFU, CARD8 / Fold change vs veh, CARD8 / RFU, STRN3 / Fold change vs veh, STRN3 / RFU, ADK / Fold change vs veh, ADK / RFU, RASSF2 / Fold change vs veh, RASSF2 / RFU, WIPF1 / Fold change vs veh, WIPF1 / RFU, LARP1B / Fold change vs veh, LARP1B / RFU, RASA1 / Fold change vs veh, RASA1 / RFU, RB1 / Fold change vs veh, RB1 / RFU, PPFIA1 / Fold change vs veh, PPFIA1 / RFU, MAT2A / Fold change vs veh, MAT2A / RFU, CCT5 / Fold change vs veh, CCT5 / RFU, WDR92 / Fold change vs veh, WDR92 / RFU, CUX1 / Fold change vs veh, CUX1 / RFU, TTC7A / Fold change vs veh, TTC7A / RFU, TMEM135 / Fold change vs veh, TMEM135 / RFU, DEPTOR / Fold change vs veh, DEPTOR / RFU, CPM / Fold change vs veh, CPM / RFU, DNAJB6 / Fold change vs veh, DNAJB6 / RFU, CACNA2D3 / Fold change vs veh, CACNA2D3 / RFU, DTX4 / Fold change vs veh, DTX4 / RFU, TFCP2 / Fold change vs veh, TFCP2 / RFU, GMCL1 /// GMCL1P1 / Fold change vs veh, GMCL1 /// GMCL1P1 / RFU, AEBP2 / Fold change vs veh, AEBP2 / RFU, SNHG1 /// SNORD22 /// SNORD25 /// SNORD26 /// SNORD27 /// SNORD28 /// SNORD29 /// SNORD31 / Fold change vs veh, SNHG1 /// SNORD22 /// SNORD25 /// SNORD26 /// SNORD27 /// SNORD28 /// SNORD29 /// SNORD31 / Fold change (Aza/veh), C12orf56 (ProbeSet 11735607_a_at) / Fold change (ACY-1035/veh), C12orf56 (ProbeSet 11735607_a_at) / Fold change (Aza/veh), FGFR1OP (ProbeSet 11751329_s_at) / Fold change (ACY-1035/veh), FGFR1OP (ProbeSet 11751329_s_at) / Fold change (Aza/veh), VPS36 (ProbeSet 11739960_a_at) / Fold change (ACY-1035/veh), VPS36 (ProbeSet 11739960_a_at) / RFU SYPL1 (11715823_x_at) / Fold change /veh SYPL1 (11715823_x_at) / RFU IGFBP7 (11715501_s_at) / Fold change /veh IGFBP7 (11715501_s_at) / RFU REEP3 (11722064_at) / Fold change /veh REEP3 (11722064_at) / RFU IGLL1 (11728026_x_at) / Fold change /veh IGLL1 (11728026_x_at): dose or concentration left out as unconfirmed.

Each structure is given as a SMILES string.

With `Nc1ncn([C@@H]2O[C@H](CO)[C@@H](O)[C@H]2O)c(=O)n1` [azacitidine], the “RFU EBF3 (11725865_a_at)” value came to 64.76 RFU.
